Experimental data from ChEMBL document CHEMBL1201862, “PubChem BioAssay data set” (2004).
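Cells were grown in 96-well plates and exposed to each compound for 48 hours at five concentrations; endpoints were interpolated linearly between bracketing concentrations, or set to the highest concentration if not reached. GI50 = concentration required for 50% inhibition of growth.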 The source made the active and inactive calls. Rule as the data show it: active = GI50 up to about 1.1 µM and inactive = higher.

Key:
Assay in all cases: inhibition of tumour cell growth, NCI panel, 48 h
NCI-H226 = test system: NCI-H226
UACC-62 = test system: UACC-62
RPMI-8226 = test system: RPMI-8226
PC-3 = test system: PC-3
OVCAR-8 = test system: OVCAR-8
COLO 205 = test system: COLO 205
EKVX = test system: EKVX
UO-31 = test system: UO-31
MOLT-4 = test system: MOLT-4
786-0 = test system: 786-0
RXF 393 = test system: RXF 393
OVCAR-4 = test system: OVCAR-4
Hs-578T = test system: Hs-578T
DMS-273 = test system: DMS-273
T47D = test system: T47D
SK-OV-3 = test system: SK-OV-3
CCRF-CEM = test system: CCRF-CEM
KM12 = test system: KM12
M14 = test system: M14
HT-29 = test system: HT-29

Measured: GI50

CC(C)c1ccc(C2NC(S)=NC3=C2c2ccccc2C3=O)cc1 (configuration not stated)
inactive: NCI-H226 34.4 µM | UACC-62 12 µM | RPMI-8226 23.2 µM | PC-3 11.3 µM | OVCAR-8 32.1 µM | COLO 205 26.4 µM | EKVX 33.4 µM | UO-31 21.5 µM | MOLT-4 24.4 µM | 786-0 22.5 µM | RXF 393 10.3 µM | OVCAR-4 21.6 µM | Hs-578T 14.8 µM | DMS-273 30 µM | T47D 18.2 µM | SK-OV-3 25.4 µM | CCRF-CEM 26.5 µM | KM12 27.4 µM | M14 28 µM | HT-29 25.5 µM

COc1ccc2c(c1[N+](=O)[O-])CC[C@@H]1[C@@H]2CC[C@]2(C)C(=O)CC[C@@H]12
inactive: NCI-H226 23.1 µM | UACC-62 18.3 µM | RPMI-8226 > 25 µM | PC-3 22 µM | OVCAR-8 > 25 µM | COLO 205 21.8 µM | EKVX > 25 µM | UO-31 > 25 µM | MOLT-4 > 25 µM | 786-0 210 µM | RXF 393 > 25 µM | OVCAR-4 15.5 µM | Hs-578T 17.1 µM | DMS-273 > 25 µM | T47D > 25 µM | SK-OV-3 7.41 µM | CCRF-CEM 9.06 µM | KM12 > 25 µM | M14 > 25 µM | HT-29 > 25 µM

CCOc1ccc(C2=NN(CC)C(=O)C(C3C(=O)N(c4ccccc4)N=C3C)C2)cc1 (configuration not stated)
inactive: NCI-H226 > 100 µM | UACC-62 > 100 µM | RPMI-8226 > 100 µM | OVCAR-8 > 100 µM | COLO 205 > 100 µM | EKVX > 100 µM | UO-31 > 100 µM | MOLT-4 > 100 µM | 786-0 > 100 µM | RXF 393 > 100 µM | OVCAR-4 > 100 µM | DMS-273 > 100 µM | SK-OV-3 > 100 µM | CCRF-CEM > 100 µM | KM12 > 100 µM | M14 > 100 µM | HT-29 > 100 µM
